Measurements as given in patent US11179377B2, “Pharmaceutical compositions and uses thereof” (Embera NeuroTherapeutics, Inc., priority 2017, dated 2021).

Tests used:
Format in all cases: physicochemical
[1] = Metyrapone Assay and Related Substances after 4 Weeks of Storage (HPLC Test Method B); conditions: for Assay at 1 mo (metyrapone) / Total imps at 1 mo: metyrapone method (Test Method B)
Experimental: (§1) Binary mixtures of the drug substances were prepared, stressed at 40° C./75% RH for 4 weeks and evaluated by the assay and related substances method using both analytical methods. Prototype blends containing oxazepam and metyrapone were prepared that would represent potential approaches for a single unit combination tablet with (i) one prototype using dry granulation and (ii) one prototype using wet granulation. The blends were stressed at 25° C./60% RH and at 40° C./75% RH for 4 weeks and evaluated.
Accurately weigh samples into a 500 mL volumetric flask. Add approximately 1 to 2 mL of water to disintegrate. Add sample diluent, sonicate for 15 minutes, shake for 15 minutes, and then bring to volume with sample diluent and mix well. Filter this solution and dilute to an appropriate sample concentration with sample diluent, and analyze by HPLC using the chromatographic conditions below.
(§2) The compatibility between the two compounds was evaluated as (i) neat API mixtures (1:15 and 1:30 ratios of oxazepam:metyrapone) and (ii) in prototype matrices that are representative of final forms if a simple combination tablet were to be manufactured (see Table 16). These prototypes have metyrapone and oxazepam ratios representative of a 720 mg metyrapone/24 mg oxazepam dose.
(§3) One prototype was prepared using a dry granulation process while the other was prepared using a wet granulation process. In both prototypes, metyrapone was formulated intragranularly while oxazepam included extragranularly. The excipients used in each case were similar to those used on oxazepam and metyrapone minitabs formulations. The dry granulation process was facilitated through roller compaction of the intragranular components.
(§4) Samples of API mixtures and prototype tablets (created from slugs compressed on a Carver press) were stored at 25° C./60% RH and at 40° C./75% RH in glass vials with screw caps. Samples were removed from storage after 4 weeks and analyzed for metyrapone, oxazepam and related substances using both HPLS analytical methods (Test methods A and B). Different dilutions were required to appropriately analyze for metyrapone and oxazepam from the mixtures due to the large amount of metyrapone relative to oxazepam.
(§5) The compatibility of metyrapone and oxazepam was evaluated by comparing potency and impurity profiles of the following samples: • 1. Neat oxazepam API stored for 4 weeks at 25° C./60% RH and 40° C./75% RH. • 2. Neat metyrapone API stored for 4 weeks at 25° C./60% RH and 40° C./75% RH. • 3. Binary mixtures of oxazepam and metyrapone APIs at 1:15 and 1:30 ratios stored for 4 weeks at 25° C./60% RH and 40° C./75% RH. • 4. Prototype blend prepared using the wet granulation approach (metyrapone—intragranular; oxazepam—extragranular) stored for 4 weeks at 25° C./60% RH and 40° C./75% RH. • 5. Prototype blend prepared using the dry granulation approach (roller compacted metyrapone—intragranular; oxazepam—extragranular) stored for 4 weeks at 25° C./60% RH and 40° C./75% RH.
(§6) For each active pharmaceutical component, the potency and impurity values of neat API were compared with those for the binary mixtures and prototypes. Since the methods are unable to distinguish impurities from the two actives, compatibility was assessed by the increase in total impurities and decrease in potency values of the actives. The results are shown in Table 17 for oxazepam and Table 18 for metyrapone. The % peak areas for API admixtures and prototypes are proportional to the ratio of the two actives in the corresponding samples.

[2] = Metyrapone-Oxazepam Compatibility Study, overall conclusions
Experimental: A study was conducted to assess the compatibility between oxazepam and metyrapone in a single pharmaceutical composition (e.g., single tablet unit containing both compounds).
as §1
The compatibility between the two compounds was evaluated as (i) neat API mixtures (1:15 and 1:30 ratios of oxazepam:metyrapone) and (ii) in prototype matrices that are representative of final forms if a simple combination tablet were to be manufactured (see Table 16). […]
as §4, with “Different dilutions were required to appropriately analyze for metyrapone and oxazepam from the mixtures due to the large amount of metyrapone relative to oxazepam.” left out

[3] = Oxazepam Assay and Related Substances after 4 Weeks of Storage (HPLC Test Method A); conditions: for Assay at 1 mo (oxazepam) / Total imps at 1 mo: oxazepam method (Test Method A)
Experimental: as §1
Accurately weigh samples into a volumetric flask. Add approximately 2 mL of water to disintegrate the samples. Add sample diluent, sonicate for 15 minutes, shake for 15 minutes, and then bring to volume with sample diluent and mix well. Filter the solution, dilute as needed with the sample diluent for analysis, and analyze by HPLC using the chromatographic conditions below.
as §2, §3, §4, §5, §6

[4] = 25 C. (25° C./60% RH), 4 weeks storage, Test Method B
[5] = 40 C. (40° C./75% RH), 4 weeks storage, Test Method B
[6] = 25 C. (25° C./60% RH), 4 weeks storage, Test Method A
[7] = 40 C. (40° C./75% RH), 4 weeks storage, Test Method A

## CC(C)(C(=O)c1cccnc1)c1cccnc1 [metyrapone neat, metyrapone]
[1]; [4]
  % Peak area, RRT 0.27: 0.14 % Peak area
  % Peak area, RRT 0.48: 0.05 % Peak area
  % Peak area, RRT 0.67: 0.01 % Peak area
  % Peak area, RRT 1.00 * (Metyrapone): 99.44 % Peak area
  % Peak area, RRT 1.09: 0.07 % Peak area
[1]; 25 C. (25° C./60% RH)
  Assay at 1 mo (metyrapone): 100.60%
  Total imps at 1 mo: 0.26%
[1]; [5]
  % Peak area, RRT 0.27: 0.15 % Peak area
  % Peak area, RRT 0.48: 0.06 % Peak area
  % Peak area, RRT 1.00 * (Metyrapone): 99.42 % Peak area
  % Peak area, RRT 1.09: 0.09 % Peak area
[1]; 40 C. (40° C./75% RH)
  Assay at 1 mo (metyrapone): 99.50%
  Total imps at 1 mo: 0.30%
[2]; 4 weeks storage combined with oxazepam
  impact of the incompatibility on metyrapone: minimal

## O=C1Nc2ccc(Cl)cc2C(c2ccccc2)=NC1O (centres unmarked) [oxazepam neat API, oxazepam]
[3]; [6]
  % Peak area, RRT 1.00 ** (Oxazepam): 99.45 % Peak area
  % Peak area, RRT 1.28: 0.25 % Peak area
  % Peak area, RRT 1.333: 0.16 % Peak area
[3]; 25 C. (25° C./60% RH)
  Assay at 1 mo (oxazepam): 95.00%
  Total imps at 1 mo: 0.41%
[3]; [7]
  % Peak area, RRT 1.00 ** (Oxazepam): 99.67 % Peak area
  % Peak area, RRT 1.28: 0.15 % Peak area
  % Peak area, RRT 1.329: 0.05 % Peak area
  % Peak area, RRT 1.333: 0.08 % Peak area
[3]; 40 C. (40° C./75% RH)
  Assay at 1 mo (oxazepam): 93.20%
  Total imps at 1 mo: 0.28%
[2]; in 4 weeks at 40° C./75% RH, combined with metyrapone (admixtures and prototypes)
  oxazepam degradation: up to 50%
